In brackets after ≈: the same amount, converted by molar mass. Activity calls are given as the source filed them. The calls are words filed in the database; no cut-off is given here.
Experiments:
Enterococcus faecalis = test: Antibacterial activity against Streptococcus faecalis by two-fold agar dilution method; format: functional
Klebsiella pneumoniae = test: Antibacterial activity against Klebsiella pneumoniae 4200 by two-fold agar dilution method; format: functional
Salmonella paratyphi = test: Antibacterial activity against Salmonella paratyphi ATCC 12176 by two-fold agar dilution method; format: functional, Salmonella enterica subsp. enterica serovar Paratyphi A; conditions: Salmonella enterica
Escherichia coli [1] = test: Antibacterial activity against Escherichia coli 12140 by two-fold agar dilution method; format: functional
Shigella flexneri = test: Antibacterial activity against Shigella paradysenteriae HH 117 by two-fold agar dilution method; format: functional
Staphylococcus aureus [2] = test: Antibacterial activity against Staphylococcus aureus 23390 by two-fold agar dilution method; format: functional, organism-based
Pseudomonas aeruginosa = test: Antibacterial activity against Pseudomonas aeruginosa by two-fold agar dilution method; format: functional, organism-based
Klebsiella aerogenes = test: Antibacterial activity against Enterobacter aerogenes ATCC 13048 by two-fold agar dilution method; format: functional
Staphylococcus aureus [3] = test: Antibacterial activity against penicillin G-resistant Staphylococcus aureus HH 127 by two-fold agar dilution method; format: functional
Escherichia coli [4] = test: Antibacterial activity against Escherichia coli 12140 infected in sc dosed mouse assessed as host protection administered at 1 and 5 hrs post-infection; format: functional; conditions: Escherichia coli, 12140, sc; read-out: PD50

SMILES | MIC (Enterococcus faecalis) [µg/mL] | MIC (Klebsiella pneumoniae) [µg/mL] | MIC (Salmonella paratyphi) [µg/mL] | MIC (Escherichia coli [1]) [µg/mL] | MIC (Shigella flexneri) [µg/mL] | Activity (Staphylococcus aureus [2]) | Activity (Pseudomonas aeruginosa) | MIC (Klebsiella aerogenes) [µg/mL] | MIC (Staphylococcus aureus [3]) [µg/mL] | ED50 (Escherichia coli [4]) [mg/kg]
CC(=O)OCC1=C(C(=O)[O-])N2C(=O)[C@@H](NC(=O)CS(=O)(=O)c3ccccc3)[C@H]2SC1.[Na+] | > 13 | 13 | 13 | 50 | 25 | Active | inactive | > 200 | 1.6 | 
CCS(=O)(=O)CC(=O)N[C@@H]1C(=O)N2C(C(=O)O)=C(CSc3nnc(C)s3)CS[C@H]12 | > 13 | 1.6 (≈ 3.34 µM) | 1.6 (≈ 3.34 µM) | 3.1 (≈ 6.48 µM) | 6.2 (≈ 13 µM) | Active | inactive | 100 (≈ 209 µM) | 0.4 (≈ 0.836 µM) | 8
Cn1nnnc1SCC1=C(C(=O)[O-])N2C(=O)[C@@H](NC(=O)CS(=O)(=O)C(F)(F)F)[C@H]2SC1.[Na+] | > 13 | 3.1 | 1.6 | 1.6 | 0.8 | Active | inactive | 3.1 | 1.6 | 17
CCCS(=O)(=O)CC(=O)N[C@@H]1C(=O)N2C(C(=O)O)=C(COC(C)=O)CS[C@H]12 | > 13 | 6.2 (≈ 14.7 µM) | 3.1 (≈ 7.37 µM) | 13 (≈ 30.9 µM) | 13 (≈ 30.9 µM) | Active | inactive | 200 (≈ 476 µM) | 0.8 (≈ 1.9 µM) | 56
Cc1nnc(SCC2=C(C(=O)[O-])N3C(=O)[C@@H](NC(=O)CS(C)(=O)=O)[C@H]3SC2)[nH]1.[Na+] | > 13 | 3.1 | 1.6 | 6.2 | 13 | Active | inactive | 200 | 1.6 | 10
CCCS(=O)(=O)CC(=O)N[C@@H]1C(=O)N2C(C(=O)[O-])=C(CSc3nnnn3C)CS[C@H]12.[Na+] | > 13 | 0.8 | 0.4 | 1.6 | 1.6 | Active | inactive | 6.2 | 0.4 | 10
CCS(=O)(=O)CC(=O)N[C@@H]1C(=O)N2C(C(=O)[O-])=C(CSc3nnnn3C)CS[C@H]12.[Na+] | > 13 | 1.6 | 0.8 | 1.6 | 1.6 | Active | inactive | 100 | 0.8 | 7
CC(=O)OCC1=C(C(=O)O)N2C(=O)[C@@H](NC(=O)CS(=O)(=O)C(F)(F)F)[C@H]2SC1 | > 13 | 6.2 (≈ 13.9 µM) | 6.2 (≈ 13.9 µM) | 6.2 (≈ 13.9 µM) | 13 (≈ 29.1 µM) | Active | inactive | 25 (≈ 56 µM) | 6.2 (≈ 13.9 µM) | > 50
Cn1nnnc1SCC1=C(C(=O)[O-])N2C(=O)[C@@H](NC(=O)CS(N)(=O)=O)[C@H]2SC1.[Na+] | > 13 | 13 | 1.6 | 3.1 | 3.1 | Active | inactive | 13 | 1.6 | 38
CCCCS(=O)(=O)CC(=O)N[C@@H]1C(=O)N2C(C(=O)[O-])=C(CSc3nnnn3C)CS[C@H]12.[Na+] | > 13 | 3.1 | 1.6 | 3.1 | 3.1 | Active | inactive | 13 | 0.4 | 21
CCCS(=O)(=O)CC(=O)N[C@@H]1C(=O)N2C(C(=O)[O-])=C(CSc3nnc(C)s3)CS[C@H]12.[Na+] | > 13 | 3.1 | 1.6 | 6.2 | 6.2 | Active | inactive | 50 | 0.4 | 25
CCS(=O)(=O)CC(=O)N[C@@H]1C(=O)N2C(C(=O)[O-])=C(COC(C)=O)CS[C@H]12.[Na+] | > 13 | 6.2 | 3.1 | 25 | 25 | Active | inactive | > 200 | 0.8 | 70
Cn1nnnc1SCC1=C(C(=O)O)N2C(=O)[C@@H](NC(=O)CS(=O)(=O)c3ccccc3)[C@H]2SC1 | > 13 | 3.1 (≈ 6.07 µM) | 6.2 (≈ 12.1 µM) | 3.1 (≈ 6.07 µM) | 1.6 (≈ 3.13 µM) | Active | inactive | 13 (≈ 25.5 µM) | 0.4 (≈ 0.783 µM) | 25

— ChEMBL document CHEMBL3272096, “Semisynthetic cephalosporins. Synthesis and structure-activity relationships of 7-sulfonylacetamido-3-cephem-4-carboxylic acids” (1976)
